Experimental findings from patent US20150087627A1, “COMBINATION OF KINASE INHIBITORS AND USES THEREOF” (Intellikine LLC, priority 2011, published 2015) are described below.

The target of data set [1] is T1, PI3K β (p110β/p85α) (Homo sapiens, UniProt P42338).
T1 construct: purchased Upstate / Millipore Corporation
Briefly: PI 3-Kinase (human) HTRF assay, PI3K β. Format: biochemical. To be noted: read-out: PI3K β IC50.
Procedure: Briefly, the assay is a time resolved FRET assay that indirectly measures PIP3 product formed by the activity of a PI3-K. The kinase reaction is performed in a microtiter plate (e.g., a 384 well microtiter plate). The total reaction volume is approximately 20 ul per well. In the first step, each well receives 2 ul of test compound in 20% dimethylsulphoxide resulting in a 2% DMSO final concentration. […] The plate is sealed and incubated for 15 minutes at room temperature. […] The plate is sealed and incubated for 1 hour at room temperature. The reaction is stopped by adding 5 ul of Stop Solution per well and then 5 ul of Detection Mix is added per well. The plate is sealed, incubated for 1 hour at room temperature, and then read on an appropriate plate reader. Data is analyzed and IC50s are generated using GraphPad Prism 5.

Data set [2] deals with T47D. In words: T47D proliferation. The class given is cell-based. The following applies: Homo sapiens; T47D cell line.
In data set [3] the target is T2, PI3K γ (p110γ) (Homo sapiens, UniProt P48736).
T2 construct: purchased Upstate / Millipore Corporation
In words: PI 3-Kinase (human) HTRF assay, PI3K γ. The class given is biochemical. To be noted: read-out: PI3K γ IC50.

Data set [4] deals with T3, PI3K δ (Homo sapiens, UniProt O00329).
T3 construct: purchased Upstate / Millipore Corporation
Briefly: PI 3-Kinase (human) HTRF assay, PI3K δ. Format: biochemical. The following applies: read-out: PI3K δ IC50.

In data set [5] the target is T4, PI3K α (p110α/p85α) (Homo sapiens, UniProt P42336).
T4 construct: purchased Upstate / Millipore Corporation
In words: PI 3-Kinase (human) HTRF assay, PI3K α. The class given is biochemical. To be noted: read-out: PI3K α IC50.

Data set [6] has as its system preclinical breast cancer model. In words: Preclinical breast cancer model, tumor weight / volume. The class given is in vivo. To be noted: 70 mg/kg Pan-PI3K inhibitor; 60 mg/kg compound A; FIG. 9 left panel.
Data set [7] concerns marginal zone B cells. In words: Marginal zone B cells in mouse spleen (FACS). Format: in vivo. The following applies: 70 mg/kg, spleens harvested 2 hrs after the last dose, FIG. 9.
Procedure: The effect of the compounds on the localization/viability of marginal zone B cells in the spleen is also evaluated at the conclusion of treatment.
Spleens were harvested 2 hrs after the last dose, processed and stained with appropriate antibodies (marginal zone B cell: B220+;CD23−;CD21hi) and analyzed for staining on GUAVA EasyCyte FACS machine using Guava Cytosoft 5.2 software.
The subject of data set [8] is B cell function. Briefly: TNP-Ficoll immunization, antibody production (FIG. 8). Format: in vivo. The following applies: mice immunized with TNP-Ficoll, 7 days, 70 mg/kg GDC0941, 30, 60 or 120 mg/kg Compound A. The method, then: Mice were immunized with TNP-Ficoll and treated with 1) vehicle; 2) 70 mg/kg GDC0941; 3) 30 mg/kg Compound A; 4) 60 mg/kg Compound A; or 5) 120 mg/kg Compound A for 7 days. Antibody production was measured as a percentage of control group that were treated with vehicle.

Data set [9] has as its system MDA-MB-361 (PI3Kα/HER2 carcinoma) tumors. Briefly: In vivo efficacy in xenogenic mouse model of breast cancer. The following applies: 70 mg/kg, FIG. 9 left panel. Details: species or system Nude mice. The method, then:
Blood glucose was monitored periodically following administration of treatment.
Treatment of tumors (MDA-MB-361) with compounds was discontinued on Day 30. Tumors were measured every 2-5 days.

The test system of data set [10] is MZB cells. Briefly: MZB cells in mouse spleen (FIG. 9, right panel). Format: in vivo. To be noted: 70 mg/kg Pan-PI3K inhibitor compared to 60 mg/kg Compound A.
In data set [11] the test system is anti-TNP antibody production. In words: TNP-Ficoll T-cell independent B-cell activation assay. Format: in vivo, mice. To be noted: 70 mg/kg GDC0941 for 7 days, FIG. 8. The method, then:
To test the effects of the compounds of the present invention in suppressing T cell independent antibody production, the TNP-Ficoll B-cell activation assay is used as described herein. Compounds of the present invention are dissolved in an appropriate vehicle (e.g. 5% 1-methyl-2-pyrrolidinone, 85% polyethylene glycol 400, 10% Solutor). Compounds are administered orally approximately 1 hr before TNP-Ficoll treatment to 4-10 week old mice. To study the effects of the compounds on B-cell activation, one set of mice are grouped according to the following table:
Four animals in group 1, and eight animals in groups 2 to 7 are euthanized in CO2 2 hours after the last compound administration on day 7. […]
Serum samples are analyzed for anti-TNP antibody titers by ELISA as described herein. […] HRP substrate (200 μl ABTS solution+30% H2O2+10 ml citrate buffer) is added to each well at 100 μl/well, incubated 2-20 minutes in the dark and the amount of anti-TNP IgG3 is determined spectrophotometrically at 405 nm. Similarly, anti-TNP IgM and total anti-TNP Ab are determined using anti-mouse IgM-HRP and anti-mouse Ig-HRP respectively.
Antibody production was measured using ELISA and plotted as a percentage of control group that were treated with vehicle.

T4 sequence (P42336 whole entry): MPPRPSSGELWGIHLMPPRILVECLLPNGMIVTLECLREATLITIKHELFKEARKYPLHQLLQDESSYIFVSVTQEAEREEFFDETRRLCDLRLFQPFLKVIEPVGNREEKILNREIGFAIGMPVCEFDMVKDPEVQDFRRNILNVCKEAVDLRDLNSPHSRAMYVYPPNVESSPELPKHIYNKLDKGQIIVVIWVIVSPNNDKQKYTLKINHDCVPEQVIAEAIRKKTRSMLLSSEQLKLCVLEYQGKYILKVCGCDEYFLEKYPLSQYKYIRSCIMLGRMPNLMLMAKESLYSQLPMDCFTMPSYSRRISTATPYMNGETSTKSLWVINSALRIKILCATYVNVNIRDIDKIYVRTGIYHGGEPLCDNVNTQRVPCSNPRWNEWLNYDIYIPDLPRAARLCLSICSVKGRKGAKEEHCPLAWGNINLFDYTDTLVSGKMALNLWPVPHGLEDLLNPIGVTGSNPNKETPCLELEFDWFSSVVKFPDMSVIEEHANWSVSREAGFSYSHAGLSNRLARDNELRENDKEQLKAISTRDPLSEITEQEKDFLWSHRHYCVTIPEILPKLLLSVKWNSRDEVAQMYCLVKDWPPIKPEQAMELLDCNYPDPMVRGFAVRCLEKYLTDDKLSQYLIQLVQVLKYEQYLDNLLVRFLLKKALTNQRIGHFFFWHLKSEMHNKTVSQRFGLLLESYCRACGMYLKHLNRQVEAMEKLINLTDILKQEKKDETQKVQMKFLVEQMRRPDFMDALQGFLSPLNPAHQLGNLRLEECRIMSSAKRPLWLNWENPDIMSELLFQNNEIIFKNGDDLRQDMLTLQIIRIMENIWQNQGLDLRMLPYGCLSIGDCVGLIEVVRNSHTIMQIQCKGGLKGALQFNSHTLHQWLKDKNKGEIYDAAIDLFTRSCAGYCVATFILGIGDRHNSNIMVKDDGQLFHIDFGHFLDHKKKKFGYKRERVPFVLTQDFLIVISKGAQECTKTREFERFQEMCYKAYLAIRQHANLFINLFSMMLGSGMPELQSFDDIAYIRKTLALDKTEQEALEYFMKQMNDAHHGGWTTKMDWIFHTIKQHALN
T4 sequence (P27986 whole entry partner): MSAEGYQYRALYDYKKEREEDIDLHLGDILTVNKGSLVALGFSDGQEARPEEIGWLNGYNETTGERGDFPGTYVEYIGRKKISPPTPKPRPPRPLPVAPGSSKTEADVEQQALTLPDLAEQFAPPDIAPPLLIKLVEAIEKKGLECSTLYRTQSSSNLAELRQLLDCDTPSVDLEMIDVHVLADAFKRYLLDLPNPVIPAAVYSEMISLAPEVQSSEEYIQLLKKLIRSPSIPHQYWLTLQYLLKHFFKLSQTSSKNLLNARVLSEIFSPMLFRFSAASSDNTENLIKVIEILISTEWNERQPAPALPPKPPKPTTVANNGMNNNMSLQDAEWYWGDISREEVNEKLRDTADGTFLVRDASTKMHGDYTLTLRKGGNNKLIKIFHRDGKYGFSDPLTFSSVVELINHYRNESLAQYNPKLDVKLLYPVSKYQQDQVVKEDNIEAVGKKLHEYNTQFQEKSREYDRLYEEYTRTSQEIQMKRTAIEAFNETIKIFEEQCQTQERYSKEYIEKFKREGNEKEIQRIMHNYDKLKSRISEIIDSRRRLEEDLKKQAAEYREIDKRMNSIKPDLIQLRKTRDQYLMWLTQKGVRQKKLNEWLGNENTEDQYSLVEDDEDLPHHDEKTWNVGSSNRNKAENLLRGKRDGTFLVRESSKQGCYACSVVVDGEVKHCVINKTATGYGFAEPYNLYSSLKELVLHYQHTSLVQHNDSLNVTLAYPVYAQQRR
T2 sequence (P48736 whole entry): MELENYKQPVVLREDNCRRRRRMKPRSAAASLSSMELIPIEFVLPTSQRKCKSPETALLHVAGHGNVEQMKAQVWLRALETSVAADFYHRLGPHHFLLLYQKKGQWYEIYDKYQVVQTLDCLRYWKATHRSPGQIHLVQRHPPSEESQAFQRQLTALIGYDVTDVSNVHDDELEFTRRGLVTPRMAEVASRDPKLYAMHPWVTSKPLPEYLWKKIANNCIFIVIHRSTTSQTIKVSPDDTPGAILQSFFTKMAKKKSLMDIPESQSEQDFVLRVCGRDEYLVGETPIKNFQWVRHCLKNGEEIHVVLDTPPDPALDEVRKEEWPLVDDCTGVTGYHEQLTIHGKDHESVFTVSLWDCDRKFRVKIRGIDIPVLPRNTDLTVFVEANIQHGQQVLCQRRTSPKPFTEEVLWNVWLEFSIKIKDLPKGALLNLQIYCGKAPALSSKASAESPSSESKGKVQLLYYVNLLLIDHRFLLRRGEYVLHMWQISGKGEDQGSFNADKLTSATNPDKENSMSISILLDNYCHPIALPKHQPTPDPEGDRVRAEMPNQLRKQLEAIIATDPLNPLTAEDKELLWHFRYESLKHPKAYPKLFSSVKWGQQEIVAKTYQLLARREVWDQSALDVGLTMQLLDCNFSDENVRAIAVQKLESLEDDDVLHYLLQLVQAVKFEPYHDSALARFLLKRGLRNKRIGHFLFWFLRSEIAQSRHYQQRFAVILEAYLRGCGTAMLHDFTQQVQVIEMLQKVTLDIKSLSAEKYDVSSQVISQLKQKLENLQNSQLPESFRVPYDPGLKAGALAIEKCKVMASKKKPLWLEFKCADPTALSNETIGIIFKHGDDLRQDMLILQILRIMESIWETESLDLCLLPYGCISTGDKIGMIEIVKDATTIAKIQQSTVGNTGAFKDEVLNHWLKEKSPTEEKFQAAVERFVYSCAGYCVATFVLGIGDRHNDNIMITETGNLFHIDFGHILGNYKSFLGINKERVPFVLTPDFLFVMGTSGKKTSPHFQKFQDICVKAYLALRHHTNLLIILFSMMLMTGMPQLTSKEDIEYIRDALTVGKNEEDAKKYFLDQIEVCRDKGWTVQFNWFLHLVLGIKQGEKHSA
T3 sequence (O00329 whole entry): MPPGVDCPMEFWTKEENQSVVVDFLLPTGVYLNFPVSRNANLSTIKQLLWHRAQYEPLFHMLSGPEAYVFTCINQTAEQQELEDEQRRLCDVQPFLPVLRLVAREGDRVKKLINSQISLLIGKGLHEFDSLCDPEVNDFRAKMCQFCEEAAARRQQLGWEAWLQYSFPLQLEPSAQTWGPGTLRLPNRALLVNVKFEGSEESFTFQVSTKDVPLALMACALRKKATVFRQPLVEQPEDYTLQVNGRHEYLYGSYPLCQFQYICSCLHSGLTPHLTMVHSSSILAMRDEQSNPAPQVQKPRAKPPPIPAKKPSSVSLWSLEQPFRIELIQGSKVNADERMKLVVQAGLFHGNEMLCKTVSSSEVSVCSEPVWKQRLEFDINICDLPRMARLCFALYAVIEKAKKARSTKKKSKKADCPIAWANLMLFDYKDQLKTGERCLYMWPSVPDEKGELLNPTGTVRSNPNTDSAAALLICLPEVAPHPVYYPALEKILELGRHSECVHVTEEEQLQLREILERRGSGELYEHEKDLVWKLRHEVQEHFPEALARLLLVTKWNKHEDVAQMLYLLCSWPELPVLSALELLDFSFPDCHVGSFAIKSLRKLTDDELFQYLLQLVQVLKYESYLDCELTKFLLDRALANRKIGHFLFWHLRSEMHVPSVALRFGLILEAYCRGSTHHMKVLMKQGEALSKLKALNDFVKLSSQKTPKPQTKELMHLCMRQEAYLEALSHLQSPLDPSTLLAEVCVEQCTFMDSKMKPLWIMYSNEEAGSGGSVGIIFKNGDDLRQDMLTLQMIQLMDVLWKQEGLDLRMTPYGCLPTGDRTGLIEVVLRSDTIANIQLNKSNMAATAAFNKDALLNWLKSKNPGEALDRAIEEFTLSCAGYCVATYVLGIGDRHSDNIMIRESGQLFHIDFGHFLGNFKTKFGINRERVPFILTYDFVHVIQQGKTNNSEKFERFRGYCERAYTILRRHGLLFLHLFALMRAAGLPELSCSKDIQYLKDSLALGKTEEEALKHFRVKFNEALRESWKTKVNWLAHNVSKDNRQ
T3 sequence (P27986 whole entry partner): as the sequence (P27986 whole entry partner) above
T1 sequence (P42338 whole entry): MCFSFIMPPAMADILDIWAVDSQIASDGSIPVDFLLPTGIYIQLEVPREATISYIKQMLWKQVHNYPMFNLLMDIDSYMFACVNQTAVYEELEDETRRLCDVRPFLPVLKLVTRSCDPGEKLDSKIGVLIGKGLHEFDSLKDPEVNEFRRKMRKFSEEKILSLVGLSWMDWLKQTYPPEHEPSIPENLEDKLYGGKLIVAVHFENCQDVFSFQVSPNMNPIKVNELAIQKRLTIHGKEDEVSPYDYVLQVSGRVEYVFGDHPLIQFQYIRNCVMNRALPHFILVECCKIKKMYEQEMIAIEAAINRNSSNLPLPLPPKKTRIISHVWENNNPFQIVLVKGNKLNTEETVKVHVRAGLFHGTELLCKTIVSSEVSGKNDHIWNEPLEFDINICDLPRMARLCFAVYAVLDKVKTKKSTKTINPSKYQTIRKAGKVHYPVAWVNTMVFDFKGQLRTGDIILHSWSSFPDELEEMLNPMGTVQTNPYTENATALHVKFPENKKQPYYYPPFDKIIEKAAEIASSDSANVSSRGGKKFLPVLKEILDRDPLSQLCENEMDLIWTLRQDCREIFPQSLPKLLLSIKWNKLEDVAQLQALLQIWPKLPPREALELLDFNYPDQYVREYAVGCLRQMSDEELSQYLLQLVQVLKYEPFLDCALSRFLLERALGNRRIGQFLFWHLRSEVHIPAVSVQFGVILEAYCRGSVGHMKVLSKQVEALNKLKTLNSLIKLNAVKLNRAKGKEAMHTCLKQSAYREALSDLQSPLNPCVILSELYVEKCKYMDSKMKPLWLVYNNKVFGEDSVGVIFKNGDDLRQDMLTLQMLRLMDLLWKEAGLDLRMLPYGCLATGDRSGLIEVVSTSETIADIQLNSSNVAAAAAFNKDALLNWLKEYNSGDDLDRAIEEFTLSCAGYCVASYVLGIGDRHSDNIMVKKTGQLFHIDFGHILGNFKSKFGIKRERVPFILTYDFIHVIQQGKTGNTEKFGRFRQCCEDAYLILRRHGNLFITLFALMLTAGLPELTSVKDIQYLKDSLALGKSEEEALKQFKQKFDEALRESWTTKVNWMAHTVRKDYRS
T1 sequence (P27986 whole entry partner): as the sequence (P27986 whole entry partner) above

As to `Nc1nc2cc(-c3ccc4nnc(C(=O)N5CCOCC5)n4c3)ccc2o1` [Compound 282], the half-maximal inhibitory concentration (IC50) in [1], in data set [2], in data set [3], in data set [4] and in [5] was over 10 µM in each case.
`CS(=O)(=O)N1CCN(Cc2cc3nc(-c4cccc5[nH]ncc45)nc(N4CCOCC4)c3s2)CC1` [Pan-PI3K inhibitor, reference compound]: the “tumor weight of a breast cancer model” value in [6] is given as “reduction in tumor weight”. For the same compound, the “presence of MZB cells in mouse spleen” value in [7] and in data set [10] was “reduced presence of MZB cells” in each case. The “B cell function in vivo (antibody production as percentage of vehicle control)” value in data set [8] is recorded as “blocks B cell function in vivo”. Besides, the tumor weight entry in [9] was “reduction in tumor weight”. Further, the “B cell function in vivo (antibody production, ELISA)” value in data set [11] is recorded as “blocks B cell function in vivo”.
